The source of these data is US20150374705A1, “Substances for treatment or relief of pain” (Shanghai Institues for Biological Sciences, priority 2012, published 2015).

Entries after “also recorded” stand apart in the source; their conditions may differ.

Assay [1] concerns the target T1, Human recombinant GABAA receptor containing α1 subunit (α1, β3, γ2) (Homo sapiens, UniProt P14867+P18507).
T1 construct: expressed in transfected cells; host or cells: 293 cell line
The assay is described as follows: Competitive radioligand binding ([3H]Ro-0151788) on membranes of 293 cells, Ki. Conditions: human recombinant GABAA subtype containing α1; read-out: Affinity, nM (α1). As to the method:
(§1) Different subunits of GABAA receptor were expressed in cell lines, including human kidney epithelial cell line, 293 cell line or L(tk−) cell line. The cells were cultured in medium, and such cells were used as the cellular model for screening drugs to suppress pain. a subunit, β subunit and γ subunit are indispensable for one complete functional GABAA receptor.
In this example, the inventors established the following cellular models:
(§2) (b) simultaneously expressing α1 subunit (GenBank accession number: NM_001127648.1), β3 subunit and γ2 subunit in 293 cell line, forming the GABAA receptor containing α1 subunit; • (c) simultaneously expressing α2 subunit (for the protein sequence, see GenBank accession number NM_000813.2), β3 subunit and γ2 subunit in 293 cell line, forming the GABAA receptor containing α2 subunit;
Each of the (a) to (d) above could form a GABAA receptor with complete function.
Then, the cellular membrane was extracted and the protein concentration was measured. The competitive binding of the substances to be measured and radiolabelled compounds (e.g. 1 nM [^3H]Ro-0151788) were detected respectively to calculate the Ki value of the substances to be measured, see the method described in literature (Ballard T M et al., RO4938581, a novel cognitive enhancer acting at GABAA alpha5 subunit-containing receptors. Psychopharmacology (Berl). 2009 January; 202(1-3): 207-23). If the binding inhibition constant Ki (nM) of α5-GABAA receptor with the candidate substances in experimental group is less than the Ki of the receptor containing other a subunit (α1 subunit, α2 subunit or α3 subunit), then the candidate substance is a potential drugs for preventing, relieving or treating pain. Many methods can be used by those skilled in the art to evaluate the binding capacity of the ligand of α5-GABAA receptor to the α5-GABAA receptor, including but not limiting to the method above.

Assay [2] deals with T2, Human recombinant α5-GABAA receptor (Homo sapiens, UniProt P18507+P31644).
T2 construct: expressed in transfected cells; host or cells: 293 cell line
The assay is described as follows: Electrophysiological inverse agonist efficacy on GABA-induced current. It counts as cell-based. As to conditions: change of GABA-induced current; negative = inhibition. Here is the method: as §1
(a) simultaneously expressing α5 subunit (for the protein sequence, see GenBank accession number NM_001165037.1), β3 subunit (for the protein sequence, see GenBank accession number NM_021912.4) and γ2 subunit (for the protein sequence, see GenBank accession number NM_198904.2) in 293 cell line, forming the GABAA receptor containing α5 subunit;
(§3) The inventors used electrophysiological methods to measure the inverse agonist efficacy of the substances to be measured, see the method described in literature (Ballard T M et al., RO4938581, a novel cognitive enhancer acting at GABAA alpha5 subunit-containing receptors. Psychopharmacology (Berl). 2009 January; 202 (1-3): 207-23). […] Many methods can be used by those skilled in the art to evaluate the binding capacity of the ligand of α5-GABAA receptor to the α5-GABAA receptor, including but not limiting to the method above.
(§4) Inverse agonist efficacy represents the inhibition percentage of the candidate substance on the current induced by GABA through α5-GABAA receptor=(the current intensity induced by GABA through α5-GABAA receptor with the existence of candidate substance−the current intensity induced by GABA through α5-GABAA receptor without the existence of candidate substance)/the current intensity induced by GABA through α5-GABAA receptor without the existence of candidate substance.

Assay [3] relates to CFA induced inflammatory pain model rats (mechanical pain). The assay is described as follows: CFA induced inflammatory pain model, mechanical pain threshold. It is filed as in vivo. As to conditions: rat.
Assay [4] relates to CFA induced inflammatory pain model rats (heat pain). The assay is described as follows: CFA induced inflammatory pain model, heat pain threshold. It counts as in vivo. Conditions: rat.
Assay [5] concerns SNI model rats (neuropathic pain). The assay is described as follows: Spared nerve injury (SNI) model, neuropathic pain, mechanical pain threshold. It is filed as in vivo. As to conditions: rat; for Suppression of neuropathic pain (nociceptive threshold): 3 mg/kg injection, 0.5-24 hours after administration; for Suppression of neuropathic pain (nociceptive threshold) / Tolerance on continuous administration: 14 days after SNI; for Tolerance on continuous administration: continuous injection for 6 days, measured 1-3 hours after administration. In short, it runs like this: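 Male SD rats (200-250 g, n=6) with spared nerve injury (tibial and common peroneal ligated and cut, sural spared) were tested blind. Von Frey filaments (1-50 g) on the plantar paw gave the 50% withdrawal threshold. Compounds in 70% PEG400 were injected at 2-3 mg/kg; MRK016-M3 in 90% PEG400 was given orally at 0.3-10 mg/kg; unpaired t-test.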

The target of assay [6] is T3, Human recombinant GABAA receptor containing α1 subunit (Homo sapiens, UniProt P14867+P18507).
T3 construct: expressed in transfected cells; host or cells: 293 cell line
The assay is described as follows: Electrophysiological inverse agonist efficacy on GABA-induced current. It is filed as cell-based. As to conditions: change of GABA-induced current; negative = inhibition. As to the method: as §1, §2, §3, §4

The test system of assay [7] is Human recombinant GABAA receptor containing α2 subunit. The description is as above. It is filed as cell-based. As to conditions: change of GABA-induced current; negative = inhibition. Here is the method:
as §1, §2, §3, §4

For the molecule `Cn1ncnc1COc1nn2c(-c3cc(CO)on3)nncc2c1C(C)(C)C` [MRK016-M3, (3-(3-tert-butyl-2-((2-methyl-2H-1,2,4-triazol-3-yl)methoxy)pyrazolo [1,5-d][1,2,4]triazin-7-yl)isoxazol-5-yl)methanol], the Ki in assay [1] came to 1.5 nM. Further, the “Inverse agonist efficacy, % (α5)” value in assay [2] is given as −52%. Moreover, in assay [3] (oral administration, 7 days after CFA model, 1 hour after administration), the “Suppression of mechanical pain” value is “significantly suppress inflammatory pain; also recorded: significantly suppressed pain”. For the same molecule, in assay [4] (oral administration, 3 days after CFA model, 1 hour after administration), the “Suppression of heat pain” value is given as “significantly suppress inflammatory pain; also recorded: significantly suppressed pain”. For the same molecule, in assay [5] (100 microliter (1 mg/ml) injected to the feet, 10 days after SNI), the “Suppression of neuropathic pain, topical administration” value is given as “still efficiently suppressed”. Further, the “Suppression of neuropathic pain (pain threshold) in rats injected with control siRNA” value in assay [5] (oral 3 mg/kg, control siRNA intrathecal, 3 mg/kg) was “significantly suppressed neuropathic pain; also recorded: significantly increased the pain threshold”. Also, the “Suppression of neuropathic pain (pain threshold) in rats injected with siRNA specific to α5 subunit” value in assay [5] (oral 3 mg/kg, α5-specific siRNA intrathecal, 3 mg/kg) was “no obvious effect; also recorded: did not significantly increase the nociceptive threshold”. Moreover, the “Suppression of neuropathic pain (mechanical pain), dose-dependent experiment” value in assay [5] (oral 10 mg/kg, 3 mg/kg and 1 mg/kg, 10 to 20 days after SNI, 1 hour after administration) is listed as “significantly suppressed”. Besides, in assay [6], the “Inverse agonist efficacy, % (α1)” value is −11%. The “Inverse agonist efficacy, % (α2)” value in assay [7] is −1%.

Turning to `Cc1cc(-c2nnc3c4ccccc4c(OCC4=CC(C)C=N4)nn23)no1` (stereo not drawn) [α5IA], the Ki in assay [1] was 0.88 nM. Besides, the “Inverse agonist efficacy, % (α5)” value in assay [2] was −29%. For the same molecule, the “Suppression of mechanical pain” value in assay [3] (3 mg/kg intraperitoneal, 7 days after CFA, 0.5-24 hours after administration, listed as A5I, 3 mg/kg) is on record as “efficiently treat mechanical pain; also recorded: efficiently inhibit inflammatory pain”. In addition, the “Suppression of heat pain” value in assay [4] (3 mg/kg intraperitoneal, 3 days after CFA, 0.5-3.0 hours after administration, listed as A5I, 3 mg/kg) is “efficiently inhibit inflammatory pain; also recorded: efficiently treat heat pain”. In addition, the “Suppression of neuropathic pain (nociceptive threshold)” value was “significantly suppressed neuropathic pain” in assay [5] (3 mg/kg) and “efficiently suppressed neuropathic pain” in assay [5] (listed as A5I, 3 mg/kg). Moreover, the entries for the “Tolerance on continuous administration” value in assay [5] and in assay [5] (listed as A5I) were “did not generate tolerance response” and “did not produce tolerance”, respectively. Also, in assay [6], the “Inverse agonist efficacy, % (α1)” value was −4%. In addition, in assay [7], the “Inverse agonist efficacy, % (α2)” value came out at 12%.
